According to patent US20210395239A1 (Hoffmann-La Roche Inc., priority 2018, published 2021):

Key:
[1] = biological target: T1, human TLR8 (Homo sapiens, UniProt Q9NR97); test: HEK293-Blue-hTLR-8 cells assay (SEAP reporter, R848 stimulation); assay type: cell-based; conditions: HEK293-Blue-hTLR8 cells, R848, 20 hrs; read-out: HEK/hTLR8 IC50
T1 construct: host or cells: HEK293 (HEK-Blue hTLR8)
T1 sequence (Q9NR97 27-1041): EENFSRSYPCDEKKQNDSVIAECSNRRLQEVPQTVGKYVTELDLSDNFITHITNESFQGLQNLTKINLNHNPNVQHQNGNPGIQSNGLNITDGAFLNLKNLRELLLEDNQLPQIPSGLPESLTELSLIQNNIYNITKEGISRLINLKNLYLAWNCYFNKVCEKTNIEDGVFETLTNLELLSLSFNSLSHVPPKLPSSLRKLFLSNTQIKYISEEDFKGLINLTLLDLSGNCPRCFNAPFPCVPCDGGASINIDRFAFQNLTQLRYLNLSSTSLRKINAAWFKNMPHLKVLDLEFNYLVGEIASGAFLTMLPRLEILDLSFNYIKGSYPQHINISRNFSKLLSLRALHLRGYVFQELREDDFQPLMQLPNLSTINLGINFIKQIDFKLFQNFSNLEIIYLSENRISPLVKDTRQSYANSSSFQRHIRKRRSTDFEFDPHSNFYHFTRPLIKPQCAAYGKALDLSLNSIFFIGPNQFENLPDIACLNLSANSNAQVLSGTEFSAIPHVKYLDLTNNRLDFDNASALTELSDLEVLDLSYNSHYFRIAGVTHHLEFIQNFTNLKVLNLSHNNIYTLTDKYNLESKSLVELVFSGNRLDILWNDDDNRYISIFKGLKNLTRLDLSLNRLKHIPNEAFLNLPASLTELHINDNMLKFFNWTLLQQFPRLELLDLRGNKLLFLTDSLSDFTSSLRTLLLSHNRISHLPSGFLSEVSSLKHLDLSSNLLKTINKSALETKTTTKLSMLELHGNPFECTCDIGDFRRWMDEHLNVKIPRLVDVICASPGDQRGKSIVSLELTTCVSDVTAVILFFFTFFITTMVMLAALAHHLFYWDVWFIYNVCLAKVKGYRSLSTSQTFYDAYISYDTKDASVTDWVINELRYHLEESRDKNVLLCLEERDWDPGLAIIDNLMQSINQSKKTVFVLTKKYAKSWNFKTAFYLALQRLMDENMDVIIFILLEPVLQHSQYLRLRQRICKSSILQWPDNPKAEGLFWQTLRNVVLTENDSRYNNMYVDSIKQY
Summary of the method: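 HEK293-Blue-hTLR8 cells (NF-κB/AP-1-driven SEAP) incubated 20 h at 37° C with serially diluted compound (1% DMSO) plus R848 stimulation. Supernatant SEAP measured with QUANTI-Blue, 2 h at 37° C, absorbance 620–655 nm.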

[2] = biological target: T2, CYP2C9 (Homo sapiens, UniProt P11712); test: CYP inhibition assay in human liver microsome, CYP2C9; assay type: in vitro ADME; conditions: human, human liver microsomes, probe diclofenac 5 μM, substrate diclofenac 5 μM, first value of 2C9/2D6/3A4
T2 construct: tissue BD-Gentest 452117; host or cells: human liver microsomes
Summary of the method: (§1)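 Pooled human liver microsomes with a substrate for each CYP were incubated with compound at 37 °C after NADPH addition, for 5 min (CYP2D6: 10 min), then quenched with acetonitrile containing labelled metabolite standards. Metabolite/internal-standard peak area ratios were measured by RapidFire MS/MS. % inhibition was scaled between DMSO and standard-inhibitor controls.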

[3] = biological target: T3, CYP3A4 (Homo sapiens, UniProt P08684); test: CYP inhibition assay in human liver microsome, CYP3A4; assay type: in vitro ADME; conditions: human, human liver microsomes, probe midazolam 5 μM, substrate midazolam 5 μM, third value of 2C9/2D6/3A4
T3 construct: tissue BD-Gentest 452117; host or cells: human liver microsomes
Summary of the method: as §1

T3 sequence (P08684 whole entry): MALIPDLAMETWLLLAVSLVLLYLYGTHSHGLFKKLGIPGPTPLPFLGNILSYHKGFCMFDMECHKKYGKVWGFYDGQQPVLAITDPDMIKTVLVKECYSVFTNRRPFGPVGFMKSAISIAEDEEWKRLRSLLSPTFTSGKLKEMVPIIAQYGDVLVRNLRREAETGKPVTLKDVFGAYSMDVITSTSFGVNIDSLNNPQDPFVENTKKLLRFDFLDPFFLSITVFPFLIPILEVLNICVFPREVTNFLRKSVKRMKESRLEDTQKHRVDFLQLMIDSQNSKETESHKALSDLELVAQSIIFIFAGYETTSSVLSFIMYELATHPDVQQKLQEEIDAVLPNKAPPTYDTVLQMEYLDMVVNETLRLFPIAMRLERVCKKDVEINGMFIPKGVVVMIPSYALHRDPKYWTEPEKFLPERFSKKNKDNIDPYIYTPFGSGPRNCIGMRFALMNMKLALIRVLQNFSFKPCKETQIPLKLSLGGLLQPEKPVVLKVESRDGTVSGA
T2 sequence (P11712 whole entry): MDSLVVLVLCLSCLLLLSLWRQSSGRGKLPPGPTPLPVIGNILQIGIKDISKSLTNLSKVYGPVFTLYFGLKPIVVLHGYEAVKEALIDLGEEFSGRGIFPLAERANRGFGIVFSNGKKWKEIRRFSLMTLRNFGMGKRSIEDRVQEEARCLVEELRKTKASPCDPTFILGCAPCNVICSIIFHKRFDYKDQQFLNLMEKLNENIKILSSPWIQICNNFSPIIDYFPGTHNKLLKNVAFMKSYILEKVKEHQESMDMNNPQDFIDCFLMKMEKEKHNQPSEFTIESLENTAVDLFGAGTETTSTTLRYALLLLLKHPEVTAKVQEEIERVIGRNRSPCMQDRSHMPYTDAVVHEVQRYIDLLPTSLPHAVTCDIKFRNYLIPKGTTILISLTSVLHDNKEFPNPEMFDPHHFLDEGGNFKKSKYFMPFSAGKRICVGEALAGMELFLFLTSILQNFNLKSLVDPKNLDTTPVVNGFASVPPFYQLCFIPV

C[C@@H]1CN(c2ccc(C#N)n3ncc(F)c23)C[C@H](CN2CCN(c3ccc(N4CC5(CN(C)C5)C4)nc3)CC2)O1 [Example 170, 3-fluoro-4-[(2R,6S)-2-methyl-6-[[4-[6-(6-methyl-2,6-diazaspiro[3.3]heptan-2-yl)-3-pyridyl]piperazin-1-yl]methyl]morpholin-4-yl]pyrazolo[1,5-a]pyridine-7-carbonitrile]
IC50 [1]: 13 nM
inhibition at 5 min, 10 µM [2]: -1%
inhibition at 5 min, 10 µM [3]: -7%
